According to patent US10633419B2, “Immunomodulators” (BRISTOL-MYERS SQUIBB COMPANY, priority 2014, dated 2020):
pIC50: −log10 of the molar value. Starred links: 1 amine or outer side, 2 acyl side, 3 side chain; linkers in the order of their positions; H or OH if unused. Positions of bridges follow the written chain, without caps; N, C: chain ends. Non-standard residues stand in square brackets, D forms with d. Residues, ends and D or L forms follow the SMILES beside them. Groups on a side chain read outwards from the residue. *: point of attachment. εLys(α-Octadecanedioyl) = O=C(O)CCCCCCCCCCCCCCCCC(=O)N[C@@H](CCCCN*)C(=O)O; Trp(1-CH2COOH) = N[C@@H](Cc1cn(CC(=O)O)c2ccccc12)C(=O)O; X27 = CCCCCCCCCCCCCCCCNC(=O)CCC(=O)NCCCOCCOCCOCCCN*; X9 = O=C(O)CCCCCCCCCCCCCCCCC(=O)N[C@@H](CCN*)C(=O)O; C18 diacid = O=C(O)CCCCCCCCCCCCCCCCC(=O)*; Phe(4-F) = N[C@@H](Cc1ccc(F)cc1)C(=O)O; γGlu = O=C(O)[C@H](CCC(=O)[*:2])N[*:1]; βAsp = O=C(O)[C@H](CC(=O)[*:2])N[*:1]; Bta = N[C@@H](Cc1csc2ccccc12)C(=O)O; Ethylenediamine = C(CN[*:2])N[*:1]; X16 = O=C([C@H]1COCCN1[*:1])[*:2]; Hyp = O=C(O)[C@@H]1C[C@@H](O)CN1; NMeNle = CCCC[C@H](NC)C(=O)O; Pip = O=C(O)[C@@H]1CCCCN1; NMeA = CN[C@@H](C)C(=O)O; Pra = C#CC[C@H](N)C(=O)O; Dab = NCC[C@H](N)C(=O)O; Dap = NC[C@H](N)C(=O)O; AEA = NCCOCC(=O)O

Target: T1, PD-L1 (Homo sapiens, UniProt Q9NZQ7)
T1 construct: hPDL1(19-239)-TVMV-His; made in house; host or cells: HEK293T
Assay: PD-1/PD-L1 Homogenous Time-Resolved Fluorescence (HTRF) binding assay (PD-1-Ig/PD-L1-His)
Conditions: inhibition of PD-1-Ig binding to PD-L1-TVMV-His; value given as range class; read-out: HTRF IC50
In short: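 Inhibitors pre-incubated 15 min with PD-L1-His (10 nM final), then PD-1-Ig (20 nM final) added for 15 min in dPBS/0.1% BSA/0.05% Tween-20. Eu-cryptate anti-Ig (1 nM) and APC anti-His (20 nM) added, 30 min equilibration, 665/620 nm HTRF ratio read.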

T1 sequence (Q9NZQ7 with tags, fused parts or gaps): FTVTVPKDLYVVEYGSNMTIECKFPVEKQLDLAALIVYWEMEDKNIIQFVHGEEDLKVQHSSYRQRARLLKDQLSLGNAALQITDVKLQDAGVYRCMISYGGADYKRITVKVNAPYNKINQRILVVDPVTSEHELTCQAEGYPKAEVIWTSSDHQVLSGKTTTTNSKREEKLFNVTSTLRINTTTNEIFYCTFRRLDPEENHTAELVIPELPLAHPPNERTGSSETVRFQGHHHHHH

`CCCC[C@H]1C(=O)N(C)[C@@H](CCCC)C(=O)N[C@@H](CC(C)C)C(=O)N[C@H](C(=O)NCC(=O)N[C@@H](CC(=O)N2CCOC[C@@H]2C(=O)NCC[C@H](NC(=O)CCCCCCCCCCCCCCCCC(=O)O)C(=O)O)C(=O)O)CSCC(=O)N[C@@H](Cc2ccc(O)cc2)C(=O)N2CCCC[C@H]2C(=O)N[C@@H](CC(N)=O)C(=O)N2CCC[C@H]2C(=O)N[C@@H](CN)C(=O)N[C@@H](CC(C)C)C(=O)N2C[C@H](O)C[C@H]2C(=O)N[C@@H](Cc2c[nH]c3ccccc23)C(=O)N[C@@H](CCN)C(=O)N[C@@H](Cc2cn(CC(=O)O)c3ccccc23)C(=O)N1C` [Example 13158] ({CH2CO}-Y[Pip]NP[Dap]L[Hyp]W[Dab][Trp(1-CH2COOH)][NMeNle][NMeNle]LCG[βAsp][X16]-X9; thioether N-14) and `CCCC[C@H]1C(=O)N(C)[C@@H](CCCC)C(=O)N[C@@H](CC(C)C)C(=O)N[C@H](C(=O)NCC(=O)N[C@@H](CC(=O)NCCOCC(=O)NCC[C@H](NC(=O)CCCCCCCCCCCCCCCCC(=O)O)C(=O)O)C(=O)O)CSCC(=O)N[C@@H](Cc2ccc(O)cc2)C(=O)N2CCCC[C@H]2C(=O)N[C@@H](CC(N)=O)C(=O)N2CCC[C@H]2C(=O)N[C@@H](CN)C(=O)N[C@@H](CC(C)C)C(=O)N2C[C@H](O)C[C@H]2C(=O)N[C@@H](Cc2c[nH]c3ccccc23)C(=O)N[C@@H](CCN)C(=O)N[C@@H](Cc2cn(CC(=O)O)c3ccccc23)C(=O)N1C` [Example 13159] ({CH2CO}-Y[Pip]NP[Dap]L[Hyp]W[Dab][Trp(1-CH2COOH)][NMeNle][NMeNle]LCG[βAsp][AEA]-X9; thioether N-14) fall in the same range of pIC50: 8.00 to 9.52 for the first, 8.00 to 9.52 for the second.

`CCCC[C@H]1C(=O)N(C)[C@@H](CCCC)C(=O)N[C@@H](CC(C)C)C(=O)N[C@H](C(=O)NCC(=O)N[C@@H](CC(=O)NCCNC(=O)CC[C@H](NC(=O)CCCCCCCCCCCCCCCCC(=O)O)C(=O)O)C(=O)O)CSCC(=O)N[C@@H](Cc2ccc(F)cc2)C(=O)N2CCCC[C@H]2C(=O)N[C@@H](CC(=O)O)C(=O)N2CCC[C@H]2C(=O)N[C@@H](CN)C(=O)N[C@@H](CC(C)C)C(=O)N2C[C@H](O)C[C@H]2C(=O)N[C@@H](Cc2c[nH]c3ccccc23)C(=O)N[C@@H](CCN)C(=O)N[C@@H](Cc2cn(CC(=O)O)c3ccccc23)C(=O)N1C` [Example 14124] ({CH2CO}-[Phe(4-F)][Pip]DP[Dap]L[Hyp]W[Dab][Trp(1-CH2COOH)][NMeNle][NMeNle]LCGD([Ethylenediamine-γGlu-C18 diacid])-OH; thioether N-14) and `CCCC[C@H]1C(=O)N(C)[C@@H](CCCC)C(=O)N[C@@H](CC(C)C)C(=O)N[C@H](C(=O)NCC(=O)N[C@@H](CC(=O)NCCCC[C@H](NC(=O)CCCCCCCCCCCCCCCCC(=O)O)C(=O)O)C(=O)O)CSCC(=O)N[C@@H](Cc2ccc(O)cc2)C(=O)N(C)[C@@H](C)C(=O)N[C@@H](CC(N)=O)C(=O)N2CCC[C@H]2C(=O)N[C@@H](CN)C(=O)N[C@@H](CC(C)C)C(=O)N2C[C@H](O)C[C@H]2C(=O)N[C@@H](Cc2c[nH]c3ccccc23)C(=O)N[C@@H](CCN)C(=O)N[C@@H](Cc2cn(CC(=O)O)c3ccccc23)C(=O)N1C` [Example 11176] ({CH2CO}-Y[NMeA]NP[Dap]L[Hyp]W[Dab][Trp(1-CH2COOH)][NMeNle][NMeNle]LCGD(εLys(α-Octadecanedioyl))-OH; thioether N-14) fall in the same range of pIC50: 7.00 to 8.00 for the first, 7.00 to 8.00 for the second.

First: CCCCCCCCCCCCCCCCNC(=O)CCC(=O)NCCCOCCOCCOCCCNC(=O)CNC(=O)[C@@H]1CSCC(=O)N[C@@H](Cc2ccc(O)cc2)C(=O)N(C)[C@@H](C)C(=O)N[C@@H](CC(=O)O)C(=O)N2CCC[C@H]2C(=O)N[C@@H](Cc2cnc[nH]2)C(=O)N[C@@H](CC(C)C)C(=O)N2C[C@H](O)C[C@H]2C(=O)N[C@@H](Cc2c[nH]c3ccccc23)C(=O)N[C@@H](CO)C(=O)N[C@@H](Cc2c[nH]c3ccccc23)C(=O)N(C)[C@@H](CCCC)C(=O)N(C)[C@@H](CCCC)C(=O)N[C@@H](CCCNC(=N)N)C(=O)N1 [Example 11124] ({CH2CO}-Y[NMeA]DPHL[Hyp]WSW[NMeNle][NMeNle]RCG-X27; thioether N-14)
Second: CCCC[C@H]1C(=O)N(C)[C@@H](CCCC)C(=O)N[C@@H](CC(C)C)C(=O)N[C@H](C(=O)NCC(=O)N[C@@H](CNC(=O)CC[C@H](NC(=O)CCCCCCCCCCCCCCCCC(=O)O)C(=O)O)C(=O)O)CSCC(=O)N[C@@H](Cc2ccc(O)cc2)C(=O)N(C)[C@@H](C)C(=O)N[C@@H](CC(N)=O)C(=O)N2CCC[C@H]2C(=O)N[C@@H](CN)C(=O)N[C@@H](CC(C)C)C(=O)N2C[C@H](O)C[C@H]2C(=O)N[C@@H](Cc2c[nH]c3ccccc23)C(=O)N[C@@H](CCN)C(=O)N[C@@H](Cc2cn(CC(=O)O)c3ccccc23)C(=O)N1C [Example 13153] ({CH2CO}-Y[NMeA]NP[Dap]L[Hyp]W[Dab][Trp(1-CH2COOH)][NMeNle][NMeNle]LCG[Dap]([γGlu-C18 diacid])-OH; thioether N-14)
The pIC50 of the first is lower: 5.80 to 7.00 for the first, 8.00 to 9.52 for the second.

`C#CC[C@H](NC(=O)CNC(=O)[C@@H]1CSCC(=O)N[C@@H](Cc2ccc(O)cc2)C(=O)N(C)[C@@H](C)C(=O)N[C@@H](CC(N)=O)C(=O)N2CCC[C@H]2C(=O)N[C@@H](CN)C(=O)N[C@@H](CC(C)C)C(=O)N2C[C@H](O)C[C@H]2C(=O)N[C@@H](Cc2c[nH]c3ccccc23)C(=O)N[C@@H](CO)C(=O)N[C@@H](Cc2csc3ccccc23)C(=O)N(C)[C@@H](CCCC)C(=O)N(C)[C@@H](CCCC)C(=O)N[C@@H](CCCNC(=N)N)C(=O)N1)C(N)=O` [INT 1300A] ({CH2CO}-Y[NMeA]NP[Dap]L[Hyp]WS[Bta][NMeNle][NMeNle]RCG[Pra]-NH2; thioether N-14) was tested, and the pIC50 was 8.00 to 9.52.
